Our source for the AC50 values is patent US20230365592A1 (Agios Pharmaceuticals, Inc., priority 2022, published 2023).

This experiment addresses T1, human PAH with the R408W mutation (Homo sapiens, UniProt P00439, R408W).
T1 construct: expressed in transfected cells
T1 sequence (P00439 1-452 R408W): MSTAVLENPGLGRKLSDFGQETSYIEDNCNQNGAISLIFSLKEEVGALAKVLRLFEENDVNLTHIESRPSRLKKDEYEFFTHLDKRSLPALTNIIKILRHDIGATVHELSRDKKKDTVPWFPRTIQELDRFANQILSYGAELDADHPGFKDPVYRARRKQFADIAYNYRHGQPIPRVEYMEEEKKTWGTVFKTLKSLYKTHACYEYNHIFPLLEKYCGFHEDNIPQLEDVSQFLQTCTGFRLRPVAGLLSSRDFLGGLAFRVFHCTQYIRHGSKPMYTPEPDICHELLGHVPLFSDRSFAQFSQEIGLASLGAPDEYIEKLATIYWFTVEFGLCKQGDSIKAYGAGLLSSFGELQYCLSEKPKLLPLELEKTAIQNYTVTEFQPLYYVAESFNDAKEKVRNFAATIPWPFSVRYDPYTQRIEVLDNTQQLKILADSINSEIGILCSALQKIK
Nature of the experiment: Cell Based Phenylalanine Flux Assay.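 Further: after compound treatment, cells received sepiapterin plus isotope-labelled Phenylalanine for 4 hours, then labelled Tyrosine in the medium was quantified, 10-point 2-fold dilution series run in duplicate.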 The settings on record: A375 cells expressing human R408W PAH; 24 hrs compound incubation; 13C-Tyrosine by LC-MS; average where tested multiple times; read-out: AC50.

One may read the AC50 as the midpoint of the concentration-response curve, whichever way the signal moves. With `Cn1cncc1-c1nc(C(F)F)c(C(=O)N2CCc3[nH]cnc3[C@@H]2c2cc3ccccn3n2)o1` [Example 868, (R)-(4-(difluoromethyl)-2-(1-methyl-1H-imidazol-5-yl)oxazol-5-yl)(4-(pyrazolo[1,5-a]pyridin-2-yl)-6,7-dihydro-1H-imidazo[4,5-c]pyridin-5(4H)-yl)methanone], the AC50 is over 5000 nM.

Regarding `Cn1cncc1-c1nc(C(F)F)c(C(=O)N2CCc3[nH]cnc3[C@H]2c2cc3ccccn3n2)o1` [Example 869, (S)-(4-(difluoromethyl)-2-(1-methyl-1H-imidazol-5-yl)oxazol-5-yl)(4-(pyrazolo[1,5-a]pyridin-2-yl)-6,7-dihydro-1H-imidazo[4,5-c]pyridin-5(4H)-yl)methanone], the AC50 was in the range of 500 to 1000 nM. Then `Cc1ccc(-c2nnc(C(=O)N3CCc4[nH]cnc4[C@@H]3c3cc4c(C)cccn4n3)o2)nc1` [Example 870, (R)-(4-(4-methylpyrazolo[1,5-a]pyridin-2-yl)-6,7-dihydro-1H-imidazo[4,5-c]pyridin-5(4H)-yl)(5-(5-methylpyridin-2-yl)-1,3,4-oxadiazol-2-yl)methanone], with over 5000 nM; and `Cc1ccc(-c2nnc(C(=O)N3CCc4[nH]cnc4[C@H]3c3cc4c(C)cccn4n3)o2)nc1` [Example 871, (S)-(4-(4-methylpyrazolo[1,5-a]pyridin-2-yl)-6,7-dihydro-1H-imidazo[4,5-c]pyridin-5(4H)-yl)(5-(5-methylpyridin-2-yl)-1,3,4-oxadiazol-2-yl)methanone], with under 500 nM. Then `Cc1cccn2nc([C@H]3c4nc[nH]c4CCN3C(=O)c3nnc(-c4ccc(C(F)(F)F)cn4)o3)cc12` [Example 872, (R)-(4-(4-methylpyrazolo[1,5-a]pyridin-2-yl)-6,7-dihydro-1H-imidazo[4,5-c]pyridin-5(4H)-yl)(5-(5-(trifluoromethyl)pyridin-2-yl)-1,3,4-oxadiazol-2-yl)methanone], with over 5000 nM; and `Cc1cccn2nc([C@@H]3c4nc[nH]c4CCN3C(=O)c3nnc(-c4ccc(C(F)(F)F)cn4)o3)cc12` [Example 873, (S)-(4-(4-methylpyrazolo[1,5-a]pyridin-2-yl)-6,7-dihydro-1H-imidazo[4,5-c]pyridin-5(4H)-yl)(5-(5-(trifluoromethyl)pyridin-2-yl)-1,3,4-oxadiazol-2-yl)methanone], with 500 to 1000 nM. Then `Cc1cccn2nc([C@@H]3c4nc[nH]c4CCN3C(=O)c3nnc(-c4ccc(F)cn4)o3)cc12` [Example 875, (S)-(5-(5-fluoropyridin-2-yl)-1,3,4-oxadiazol-2-yl)(4-(4-methylpyrazolo[1,5-a]pyridin-2-yl)-6,7-dihydro-1H-imidazo[4,5-c]pyridin-5(4H)-yl)methanone], with under 500 nM. As for `Cc1ccc(-c2nnc(C(=O)N3CCc4[nH]cnc4[C@@H]3c3cc4c(F)cccn4n3)o2)nc1` [Example 876, (R)-(4-(4-fluoropyrazolo[1,5-a]pyridin-2-yl)-6,7-dihydro-1H-imidazo[4,5-c]pyridin-5(4H)-yl)(5-(5-methylpyridin-2-yl)-1,3,4-oxadiazol-2-yl)methanone], the AC50 is over 5000 nM. Take `Cc1ccc(-c2nnc(C(=O)N3CCc4[nH]cnc4[C@H]3c3cc4c(F)cccn4n3)o2)nc1` [Example 877, (S)-(4-(4-fluoropyrazolo[1,5-a]pyridin-2-yl)-6,7-dihydro-1H-imidazo[4,5-c]pyridin-5(4H)-yl)(5-(5-methylpyridin-2-yl)-1,3,4-oxadiazol-2-yl)methanone]: the AC50 is under 500 nM.

On to `O=C(c1nnc(-c2ccc(C(F)(F)F)cn2)o1)N1CCc2[nH]cnc2[C@@H]1c1cc2c(F)cccn2n1` [Example 878, (R)-(4-(4-fluoropyrazolo[1,5-a]pyridin-2-yl)-6,7-dihydro-1H-imidazo[4,5-c]pyridin-5(4H)-yl)(5-(5-(trifluoromethyl)pyridin-2-yl)-1,3,4-oxadiazol-2-yl)methanone], for which the AC50 was over 5000 nM.

For `O=C(c1nnc(-c2ccc(C(F)(F)F)cn2)o1)N1CCc2[nH]cnc2[C@H]1c1cc2c(F)cccn2n1` [Example 879, (S)-(4-(4-fluoropyrazolo[1,5-a]pyridin-2-yl)-6,7-dihydro-1H-imidazo[4,5-c]pyridin-5(4H)-yl)(5-(5-(trifluoromethyl)pyridin-2-yl)-1,3,4-oxadiazol-2-yl)methanone], the AC50 is under 500 nM. Turning to `O=C(c1nnc(-c2ccc(F)cn2)o1)N1CCc2[nH]cnc2[C@@H]1c1cc2c(F)cccn2n1` [Example 880, (R)-(4-(4-fluoropyrazolo[1,5-a]pyridin-2-yl)-6,7-dihydro-1H-imidazo[4,5-c]pyridin-5(4H)-yl)(5-(5-fluoropyridin-2-yl)-1,3,4-oxadiazol-2-yl)methanone], the AC50 is over 5000 nM. The result for `O=C(c1nnc(-c2ccc(F)cn2)o1)N1CCc2[nH]cnc2[C@H]1c1cc2c(F)cccn2n1` [Example 881, (S)-(4-(4-fluoropyrazolo[1,5-a]pyridin-2-yl)-6,7-dihydro-1H-imidazo[4,5-c]pyridin-5(4H)-yl)(5-(5-fluoropyridin-2-yl)-1,3,4-oxadiazol-2-yl)methanone] reads under 500 nM. Then `Cc1cc(-c2nnc(C(=O)N3CCc4[nH]cnc4[C@@H]3c3cc4c(F)cccn4n3)o2)nn1C` [Example 882, (R)-(5-(1,5-dimethyl-1H-pyrazol-3-yl)-1,3,4-oxadiazol-2-yl)(4-(4-fluoropyrazolo[1,5-a]pyridin-2-yl)-6,7-dihydro-1H-imidazo[4,5-c]pyridin-5(4H)-yl)methanone], with over 5000 nM; and `Cn1nccc1C(=O)N1CCc2[nH]cnc2[C@H]1c1cc2c(F)cccn2n1` [Example 884, (S)-(4-(4-fluoropyrazolo[1,5-a]pyridin-2-yl)-6,7-dihydro-1H-imidazo[4,5-c]pyridin-5(4H)-yl)(1-methyl-1H-pyrazol-5-yl)methanone], with 500 to 1000 nM; and `COc1cccn2nc([C@@H]3c4nc[nH]c4CCN3C(=O)c3cc(C(F)F)nn3C)cc12` [Example 886, (S)-(3-(difluoromethyl)-1-methyl-1H-pyrazol-5-yl)(4-(4-methoxypyrazolo[1,5-a]pyridin-2-yl)-6,7-dihydro-1H-imidazo[4,5-c]pyridin-5(4H)-yl)methanone], with under 500 nM. For `COc1cccn2nc([C@H]3c4nc[nH]c4CCN3C(=O)c3cc(C(F)F)nn3C)cc12` [Example 887, (R)-(3-(difluoromethyl)-1-methyl-1H-pyrazol-5-yl)(4-(4-methoxypyrazolo[1,5-a]pyridin-2-yl)-6,7-dihydro-1H-imidazo[4,5-c]pyridin-5(4H)-yl)methanone], the AC50 was over 5000 nM. As for `Cn1cncc1-c1nc(C(F)F)c(C(=O)N2CCc3[nH]cnc3[C@@H]2c2cc3c(F)cccn3n2)o1` [Example 888, (R)-(4-(difluoromethyl)-2-(1-methyl-1H-imidazol-5-yl)oxazol-5-yl)(4-(4-fluoropyrazolo[1,5-a]pyridin-2-yl)-6,7-dihydro-1H-imidazo[4,5-c]pyridin-5(4H)-yl)methanone], the half-maximal activity concentration (AC50) is over 5000 nM. Then `Cn1cncc1-c1nc(C(F)F)c(C(=O)N2CCc3[nH]cnc3[C@H]2c2cc3c(F)cccn3n2)o1` [Example 889, (S)-(4-(difluoromethyl)-2-(1-methyl-1H-imidazol-5-yl)oxazol-5-yl)(4-(4-fluoropyrazolo[1,5-a]pyridin-2-yl)-6,7-dihydro-1H-imidazo[4,5-c]pyridin-5(4H)-yl)methanone], with 500 to 1000 nM.
